The values that follow come from patent US7312356B2, “Medicament” (Cyclacel Limited, priority 2001, dated 2007).

For the molecule `CC(=O)OC[C@@]1(C(=O)O)CC[C@]2(C)C(CCC3[C@@]4(C)CC[C@H](OC(C)=O)C(C)(C)C4CC[C@]32C)C1=O` (stereo partly drawn) [(7), 3β,28-Diacetoxy-18-oxo-19,20,21,29,30-pentanorlupan-22-oic Acid], the melting point lay in the range of 142 to 144 °C.
